Reference: patent US9988390B2, “Pyrimidone derivatives and their use in the treatment, amelioration or prevention of a viral disease” (F. Hoffmann-La Roche AG, priority 2015, dated 2018)

These compounds were tested on influenza A virus (A/WSN/33 NanoLuc reporter virus) in A549 cells (assay: microbe, parasite or virus in culture). Conditions: A549, 24 h, read-out: IC50 values of viral replication inhibition in a cell-based Luciferase Reporter Assay (LRA).
Format: cell-based
In the case of CC(C)N1CC(C2c3cccc(F)c3CCc3c(F)cccc32)n2c(O)nc(=O)c(O)c2C1=O (centres unmarked) [Ia-25, 4-(4,7-Difluoro-6,11-dihydro-5H-dibenzo[1,3-b:3′,1′-e][7]annulen-11-yl)-6,9-dihydroxy-2-isopropyl-3,4-dihydropyrazino[1,2-c]pyrimidine-1,8-dione], the IC50 is reported as 86 nM.
Compound CC(C)N1C[C@H](C(c2ccccc2)c2ccccc2)n2c(-c3nnn[nH]3)nc(=O)c(O)c2C1=O [Ia-53, (4S)-4-Benzhydryl-9-hydroxy-2-isopropyl-6-(1H-tetrazol-5-yl)-3,4-dihydropyrazino[1,2-c]pyrimidine-1,8-dione] has an IC50 of 20200 nM.
CC(C)N1C[C@H](C2c3ccccc3CCc3ccccc32)n2c(NS(C)(=O)=O)nc(=O)c(O)c2C1=O [Ia-22, N-[(4S)-4-(6,11-dihydro-5H-dibenzo[1,2-a:2′,1′-d][7]annulen-11-yl)-9-hydroxy-2-isopropyl-1,8-dioxo-3,4-dihydropyrazino[1,2-c]pyrimidin-6-yl]methanesulfonamide] was tested, and the IC50 was 144 nM.
CC(C)N1C[C@H](C(c2ccccc2)c2ccccc2)n2c(NC(C)C(F)(F)F)nc(=O)c(O)c2C1=O (stereo partly drawn) [Ia-37, (4S)-4-Benzhydryl-9-hydroxy-2-isopropyl-6-[(2,2,2-trifluoro-1-methyl-ethyl)amino]-3,4-dihydropyrazino[1,2-c]pyrimidine-1,8-dione] gave an IC50 of 516 nM.
COc1nc(=O)c(O)c2n1C(C1c3cccc(F)c3CCc3c(F)cccc31)CN(C(C)C)C2=O (centres unmarked) [Example 1a-20, 4-(1,9-Difluoro-10,11-dihydro-5H-dibenzo[a,d][7]annulen-5-yl)-9-hydroxy-6-methoxy-2-(propan-2-yl)-3,4-dihydro-2H-pyrazino[1,2-c]pyrimidine-1,8-dione] gave an IC50 of 16 nM.
CC(C)N1C[C@H](C(c2ccccc2)c2ccccc2)n2c(CN)nc(=O)c(O)c2C1=O [Ia-54, (4S)-6-(Aminomethyl)-4-benzhydryl-9-hydroxy-2-isopropyl-3,4-dihydropyrazino[1,2-c]pyrimidine-1,8-dione] gave an IC50 of 931 nM.
For CC(C)N1C[C@H](C(c2ccccc2)c2ccccc2)n2c(C(N)=O)nc(=O)c(O)c2C1=O [Ia-52, (4S)-4-Benzhydryl-9-hydroxy-2-isopropyl-1,8-dioxo-3,4-dihydropyrazino[1,2-c]pyrimidine-6-carboxamide], the IC50 was 93 nM.
CC(C)N1C[C@H](C(c2ccccc2)c2ccccc2)n2c(-n3cnnc3)nc(=O)c(O)c2C1=O [Ia-44, (4S)-4-Benzhydryl-9-hydroxy-2-isopropyl-6-(1,2,4-triazol-4-yl)-3,4-dihydropyrazino[1,2-c]pyrimidine-1,8-dione] gave an IC50 of 130 nM.
CC(C)N1C[C@H](C2c3ccccc3CCc3ccccc32)n2c([S+](C)[O-])nc(=O)c(O)c2C1=O (stereo partly drawn) [Ia-31, (4S)-4-(6,11-Dihydro-5H-dibenzo[2,1-b:1′,2′-e][7]annulen-11-yl)-9-hydroxy-2-isopropyl-6-methylsulfinyl-3,4-dihydropyrazino[1,2-c]pyrimidine-1,8-dione] was tested, and the IC50 was 15 nM.
CC(C)N1CC(C2c3ccccc3CCc3ccccc32)n2c(S)nc(=O)c(O)c2C1=O (centres unmarked) [Ia-75, 4-(6,11-Dihydro-5H-dibenzo[2,1-b:1′,2′-e][7]annulen-11-yl)-9-hydroxy-2-isopropyl-6-sulfanyl-3,4-dihydropyrazino[1,2-c]pyrimidine-1,8-dione] was tested, and the IC50 was 45 nM.
CC(C)N1C[C@H](C(c2ccccc2)c2ccccc2)n2c(N)nc(=O)c(O)c2C1=O [Example 1a-3, (4S)-6-Amino-4-benzhydryl-9-hydroxy-2-isopropyl-3,4-dihydropyrazino[1,2-c]pyrimidine-1,8-dione] was tested, and the IC50 was > 50000 nM.
For CC(C)N1C[C@H](C(c2ccccc2)c2ccccc2)n2c(S)nc(=O)c(O)c2C1=O [Ia-28, (4S)-4-benzhydryl-9-hydroxy-2-isopropyl-6-sulfanyl-3,4-dihydropyrazino[1,2-c]pyrimidine-1,8-dione], the IC50 was 61 nM.
CNc1nc(=O)c(O)c2n1[C@@H](C(c1ccccc1)c1ccccc1)CN(C(C)C)C2=O [Ia-49, (4S)-4-Benzhydryl-9-hydroxy-2-isopropyl-6-(methylamino)-3,4-dihydropyrazino[1,2-c]pyrimidine-1,8-dione] was tested, and the IC50 was 880 nM.
For COc1nc(=O)c(O)c2n1[C@@H](C(c1ccc(F)cc1)c1ccc(F)cc1)CN(C(C)C)C2=O [Ia-71, (4S)-4-[Bis(4-fluorophenyl)methyl]-9-hydroxy-2-isopropyl-6-methoxy-3,4-dihydropyrazino[1,2-c]pyrimidine-1,8-dione], the IC50 was 47 nM.
For COc1nc(=O)c(O)c2n1[C@@H](C1c3cccc(F)c3CCc3c(F)cccc31)[C@H](C)N(C)C2=O [Example 1a-21, (3S,4S)-4-(1,9-Difluoro-10,11-dihydro-5H-dibenzo[a,d][7]annulen-5-yl)-9-hydroxy-6-methoxy-2,3-dimethyl-3,4-dihydro-2H-pyrazino[1,2-c]pyrimidine-1,8-dione], the IC50 was 15 nM.
Work on COc1nc(=O)c(O)c2n1[C@@H](C(c1ccccc1)c1ccccc1)CN(C)C2=O [Ia-65, (4S)-4-Benzhydryl-9-hydroxy-6-methoxy-2-methyl-3,4-dihydropyrazino[1,2-c]pyrimidine-1,8-dione] yielded an IC50 of 26 nM.
CC(=O)NCc1nc(=O)c(O)c2n1[C@@H](C(c1ccccc1)c1ccccc1)CN(C(C)C)C2=O [Ia-55, N-[[(4S)-4-Benzhydryl-9-hydroxy-2-isopropyl-1,8-dioxo-3,4-dihydropyrazino[1,2-c]pyrimidin-6-yl]methyl]acetamide] showed an IC50 of 473 nM.
Work on CC(C)N1C[C@H](C(c2ccccc2)c2ccccc2)n2c(S(C)(=O)=O)nc(=O)c(O)c2C1=O [Ia-38, (4S)-4-Benzhydryl-9-hydroxy-2-isopropyl-6-methylsulfonyl-3,4-dihydropyrazino[1,2-c]pyrimidine-1,8-dione] yielded an IC50 of 110 nM.
In the case of COc1nc(=O)c(O)c2n1[C@@H]([C@H](c1ccccc1)c1ccc(Cl)cc1)CN(C(C)C)C2=O [Ia-72, (4S)-4-[(R)-(4-Chlorophenyl)-phenyl-methyl]-9-hydroxy-2-isopropyl-6-methoxy-3,4-dihydropyrazino[1,2-c]pyrimidine-1,8-dione], the IC50 is reported as 40 nM.
In the case of CN1C[C@H](C2c3ccccc3CCc3ccccc32)n2c(O)nc(=O)c(O)c2C1=O [Example 1a-11, (4S)-4-(10,11-Dihydro-5H-dibenzo[a,d][7]annulen-5-yl)-6,9-dihydroxy-2-methyl-3,4-dihydro-2H-pyrazino[1,2-c]pyrimidine-1,8-dione], the IC50 is reported as 128 nM.
Compound CC(C)N1C[C@H](C(c2ccccc2)c2ccccc2)n2c(NCc3ccccc3)nc(=O)c(O)c2C1=O [Example 1a-1, (4S)-4-Benzhydryl-6-(benzylamino)-9-hydroxy-2-isopropyl-3,4-dihydropyrazino[1,2-c]pyrimidine-1,8-dione] has an IC50 of 153 nM.
In the case of CC(C)N1C[C@H](C2c3ccccc3CCc3ccccc32)n2c(-n3ccnc3)nc(=O)c(O)c2C1=O [Ia-45, (4S)-4-(6,11-Dihydro-5H-dibenzo[2,1-b:1′,2′-e][7]annulen-11-yl)-9-hydroxy-6-imidazol-1-yl-2-isopropyl-3,4-dihydropyrazino[1,2-c]pyrimidine-1,8-dione], the IC50 is reported as 62 nM.
In the case of COc1nc(=O)c(O)c2n1C(C(c1ccc(Cl)cc1)c1ccc(Cl)cc1)CN(C(C)C)C2=O (centres unmarked) [Ia-63, 4-[Bis(4-chlorophenyl)methyl]-9-hydroxy-2-isopropyl-6-methoxy-3,4-dihydropyrazino[1,2-c]pyrimidine-1,8-dione], the IC50 is reported as 302 nM.
In the case of CC(C)N1C[C@H](C(c2ccccc2)c2ccccc2)n2c(NCC(F)(F)F)nc(=O)c(O)c2C1=O [Ia-33, (4S)-4-Benzhydryl-9-hydroxy-2-isopropyl-6-(2,2,2-trifluoroethylamino)-3,4-dihydropyrazino[1,2-c]pyrimidine-1,8-dione], the IC50 is reported as 273 nM.
For CC(C)Nc1nc(=O)c(O)c2n1[C@@H](C(c1ccccc1)c1ccccc1)CN(C(C)C)C2=O [Ia-35, (4S)-4-Benzhydryl-9-hydroxy-2-isopropyl-6-(isopropylamino)-3,4-dihydropyrazino[1,2-c]pyrimidine-1,8-dione], the IC50 was 324 nM.
Work on CC(C)N1C[C@H](C2c3ccccc3CCc3ccccc32)n2c(NCC(F)(F)F)nc(=O)c(O)c2C1=O [Ia-34, (4S)-4-(6,11-Dihydro-5H-dibenzo[2,1-b:1′,2′-e][7]annulen-11-yl)-9-hydroxy-2-isopropyl-6-(2,2,2-trifluoroethylamino)-3,4-dihydropyrazino[1,2-c]pyrimidine-1,8-dione] yielded an IC50 of 50 nM.
With CC(C)N1C[C@H](C(c2ccccc2)c2ccccc2)n2c(C#N)nc(=O)c(O)c2C1=O [Ia-51, (4S)-4-Benzhydryl-9-hydroxy-2-isopropyl-1,8-dioxo-3,4-dihydropyrazino[1,2-c]pyrimidine-6-carbonitrile] the IC50 was 368 nM.
CC(C)N1C[C@H](C(c2ccccc2)c2ccccc2)n2c(-n3ccnc3)nc(=O)c(O)c2C1=O [Ia-43, (4S)-4-Benzhydryl-9-hydroxy-6-imidazol-1-yl-2-isopropyl-3,4-dihydropyrazino[1,2-c]pyrimidine-1,8-dione] was tested, and the IC50 was 495 nM.
With CCOc1nc(=O)c(O)c2n1[C@@H](C1c3ccccc3CCc3ccccc31)CN(C(C)C)C2=O [Example 1a-12, (4S)-4-(10,11-Dihydro-5H-dibenzo[a,d][7]annulen-5-yl)-6-ethoxy-9-hydroxy-2-(propan-2-yl)-3,4-dihydro-2H-pyrazino[1,2-c]pyrimidine-1,8-dione] the IC50 was 24 nM.
Compound CC(C)N1C[C@H](C(c2ccccc2)c2ccccc2)n2c(c(O)c(=O)n(Cc3ccccc3)c2=O)C1=O [Example 1b-2, (4S)-4-Benzhydryl-7-benzyl-9-hydroxy-2-isopropyl-3,4-dihydropyrazino[1,2-c]pyrimidine-1,6,8-trione] has an IC50 of 4300 nM.
In the case of CCN1CC(C(c2ccccc2)c2ccccc2)n2c(OC)nc(=O)c(O)c2C1=O (centres unmarked) [Ia-64, 4-Benzhydryl-2-ethyl-9-hydroxy-6-methoxy-3,4-dihydropyrazino[1,2-c]pyrimidine-1,8-dione], the IC50 is reported as 50 nM.

Same assay, conditions: A549, isomers identified by X-ray analysis, read-out: IC50
COc1nc(=O)c(O)c2n1[C@@H]([C@H]1c3ccccc3CSc3ccccc31)CN(C(C)C)C2=O (single isomer, unassigned) [Example 14] gave an IC50 of 2 nM.
